According to BindingDB's records for doi:10.1021/jm801026e (Wyeth Research, 2009):
pIC50: −log10 of the molar value.

Columns and labels:
[1] = Inhibition of retinoblastoma susceptibility gene product phosphorylation in human MCF7 cells after 24 hrs
[2] = target: 3-phosphoinositide-dependent protein kinase 1 (Homo sapiens) (UniProt O15530); test: Inhibition of PDK1

Structure (SMILES)	pIC50 [1]	pIC50 [2]
O=C1NC(=O)c2ccc(I)cc2C1=CNCc1ccc(-c2ccoc2)c(O)c1 [4-[(4-Furan-3-yl-3-hydroxy-benzylamino)-methylene]-6-iodo-4Hisoquinoline-1,3-dione]	6.21	4.77
CCCOc1cnc(CNC=C2C(=O)NC(=O)c3ccc(C(C)(C)C)cc32)cc1O [6-tert-Butyl-4-{[(4-hydroxy-5-propoxy-pyridin-2-ylmethyl)-amino]-methylene}-4H-isoquinoline-1,3-dione]	6.70	–
O=C1NC(=O)c2ccc(I)cc2C1=CNCc1ccn(-c2ccoc2)c(=O)c1 [(4Z)-4-[({[1-(3-Furyl)-2-oxo-1,2-dihydropyridin-4-yl]methyl}-amino)methylene]-6-iodoisoquinoline-1,3(2H,4H)-dione]	6.43	–
